The subject of this test is MDA-MB-231. In words: Intracellular ROS analysis with DCF-DA (FACS). It counts as cell-based. The following applies: for Increase in ROS versus DMSO: 1 hour, DCF-DA. From the text: We examined the status of intracellular ROS induced by 2a. For this experiment, we employed the used 2′,7′-dichlorofluoresceindiacetate (DCF-DA),[103] a fluorogenic dye with an excitation/emission wavelength of 495/525 nm. DCF-DA enters into the cell and is subsequently deacetylated by cellular esterases where it is then oxidized by ROS to produce a fluorescent compound that can detected with flow cytometry (FACS) using the FITC channel.[104]
To quantify the amount of ROS produced, we subjected MDA-MB-231 cells to 2a at 10 and 20 μM to assess concentration dependence. Within 1 hour of treatment, we observed a 1.3× increase in ROS in cells treated with 2aversus DMSO (Fig. 11). At twice the concentration, 20 μM, we observed a 1.5× increase in ROS. […] When compared to the H2O2 control, 2a produces similar ROS levels in MDA-MB-231 cells (Fig. 11). […] To further solidify that the DCF-DA fluorescence is from ROS and not other reactive species such as RNS, we pre-treated cells with 10 mM N-acetyl cysteine for 2 h. NAC is a natural ROS scavenger and a key component in the formation of glutathione (GSH), which is a powerful antioxidant.[105,106] After pre-treatment, the cells were subjected to the same concentration of 2a (10 μM) for 1 h.
100 µL of dye into 900 µL of DMEM. Note: the working solution of JC-1 should always be prepared fresh and not stored for long-term use. Then, 100 µL/mL of DMEM were added to the cells and incubated at 37 °C for 20 minutes. Prior to imaging, the media was removed and replaced with room temperature PBS (2 mL). The cells were then visualized using confocal microscopy on a Nikon A1R Inverted Confocal Microscope. […]
For the wells that were pre-treated with NAC, a stock solution of NAC in DMEM was added at a concentration of 10 mM for 2 h prior to the addition of 2a. […] The cells were then analyzed using FACS with the FITC channel […]
Mitochondrial Metabolism Analysis with Seahorse XF96 Analysis. […] The optimum conditions were determined to be 30,000 cells/well and an FCCP injection concentration of 0.6 µM. […]

Regarding `C[N+](C)=C1[S][Au-2]2([S]1)[c]1ccccc1Cc1cccc[n+]12.F[P-](F)(F)(F)(F)F` (stereo not drawn) [2a], the “Increase in ROS versus DMSO” value reads like this: (MDA-MB-231, 10 μM) 1.3 ×; (MDA-MB-231, 20 μM) 1.5 ×. Further, the “ROS levels after NAC pre-treatment” value (MDA-MB-231, 10 mM NAC 2 h, then 10 μM for 1 h) is recorded as “no increase in ROS levels”.

The values are drawn from paper PMC8162438, “Cancer cell-selective modulation of mitochondrial respiration and metabolism by potent organogold(III) dithiocarbamates” (Chemical Science, 2020).
